The source of these data is patent US6984521B2, “HEK293 cell line for activity studies and HTS system of α1G T-type Ca2+ channel” (Korea Institute of Science and Technology, priority 2003, dated 2006).

One experiment addresses T1, Kir2.1 (Homo sapiens, UniProt P63252).
T1 construct: expressed in transfected cells; host or cells: HEK293 cells stably expressing α1G T-type calcium channel, transduced with Kir2.1-pMSCVpuro retrovirus (Kir2.1+α1G HEK293)
T1 sequence (P63252 1-427): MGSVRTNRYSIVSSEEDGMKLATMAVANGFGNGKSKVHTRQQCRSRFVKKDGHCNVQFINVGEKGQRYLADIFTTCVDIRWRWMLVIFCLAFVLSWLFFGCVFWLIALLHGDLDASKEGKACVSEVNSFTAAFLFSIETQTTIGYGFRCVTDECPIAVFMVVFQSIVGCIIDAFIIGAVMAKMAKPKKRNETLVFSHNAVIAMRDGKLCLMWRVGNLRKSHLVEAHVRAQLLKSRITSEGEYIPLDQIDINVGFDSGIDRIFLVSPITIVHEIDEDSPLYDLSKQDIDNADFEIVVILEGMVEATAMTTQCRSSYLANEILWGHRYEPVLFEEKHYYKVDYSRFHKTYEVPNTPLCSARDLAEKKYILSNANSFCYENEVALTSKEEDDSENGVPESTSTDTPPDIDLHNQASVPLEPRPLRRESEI
The experiment is described as follows: Kir2.1 channel current, whole-cell patch-clamp. It counts as cell-based. As to conditions: Kir2.1+α1G HEK293 cell; -140 to -60 mV step pulse; 1-100 μM Ba2+, 5-500 μM Cs+. How it is done: Further, the current of IRK-type potassium channel, Kir2.1 was also determined in a single cell level by the whole-cell patch-clamp method. An extracellular solution for determining IRK-type potassium channel activity comprised NaCl 135 mM, KCl 5.4 mM, CaCl2 1.8 mM, MgCl2 1 mM, HEPES 5 mM and glucose 10 mM (pH 7.4). An intracellular solution comprised D-gluconic acid (potassium salt form) 140 mM, MgCl2 2 mM, EGTA 1 mM, HEPES 5 mM and Na2ATP 1 mM (pH 7.4).
After the cell membrane voltage was fixed as about −60 mV in a whole-cell recording mode, −140 to −60 mV of 200 ms step pulse was applied to determine the inward current induced by potassium inwardly-rectifying channel activation of HEK293 cell.
Furthermore, the characteristics of Kir2.1 channel were analyzed by comparing with IC50 value for Ba^2+ and Cs^+, the conventionally known IRK-type potassium channel inhibitor. For this, Kir2.1 channel activity determination method, as discussed above, was used and the inhibition by the known Kir2.1 inhibitor, Ba^2+ and Cs^+, was observed.
FIG. 4e and FIG. 4f are graphs showing the maximum current that occurred at each voltage when 1–100 μM Ba^2+ and 5–500 μM Cs^+ known as Kir2.1 inhibitor were administered to Kir2.1+α1G HEK293 cell under −140 to −60 mV step pulse.

A further experiment deals with Kir2.1+α1G HEK293 cell. The experiment is described as follows: Intracellular calcium with fura-2/AM, cell line of the invention. It counts as cell-based, human. The following applies: 70 mM KCl. How it is done:
(§1) The calcium concentration in the cell was determined by using fura-2/AM as a fluorescent Ca^2+ label. The cells were primarily incubated with 5 μM fura-2/AM and 0.001% Pluronic F-127 in HEPES buffer solution (150 mM NaCl, 5 mM KCl, 1 mM MgCl2, 2 mM CaCl2, 10 mM HEPES, 10 mM glucose, pH 7.4) at a room temperature for about 40 to 60 minutes and then washed several times with HEPES buffer solution. After stablilzing the cells for about 10 minutes, the cells were selectively exposed to 340 nm and 380 nm by using an inverted microscope. Thereafter, the emitter fluorescence light that was entered through 515 nm long-pass filter was passed through a cooled CCD […]. The light was converted into the intracellular calcium concentration by digital fluorescence analyzer to determine the calcium concentration.

A further experiment deals with α1G HEK293 cell. Description: Intracellular calcium with fura-2/AM, control cell. The following applies: 70 mM KCl. It counts as cell-based, human. How it is done:
as §1

In experiment [1] the target is T2, α1G T-type calcium channel (Rattus norvegicus, UniProt O54898).
T2 construct: expressed in transfected cells; host or cells: HEK293 stably expressing α1G (α1G HEK293, control) and Kir2.1+α1G HEK293
The experiment is described as follows: T-type calcium channel current, whole-cell patch-clamp. The following applies: activated at about -30 mV; Ni2+ 1 μM to 1 mM, mibefradil 0.1 to 10 μM. It is filed as cell-based.
Experimental: EPC-9 amplifier (HEKA, Germany) was used to determine the current of T-type calcium channel in a single cell level by electrophysiological whole-cell patch-clamp method. An extracellular solution for determining T-type calcium channel activity comprised NaCl 140 mM, CaCl2 2 mM and HEPES 10 mM (pH 7.4), whereas an intracellular solution comprised KCl 130 mM, HEPES 10 mM, EGTA 11 mM and MgATP 5 mM (pH 7.4).
The prepared intracellular solution was introduced into a microglass electrode of about 3–4 MΦ resistance. Then, the single cell was pricked with the electrode to fix the cell membrane voltage as about −100 mV in a whole-cell recording mode. Thereafter, the inward current was determined, in which the current was induced by T-type calcium channel activity when the hypopolarization was caused by about −30 mV (50 ms duration) approximately every 10 seconds.
Furthermore, the characteristics of the channel were analyzed by comparing with IC50 value for Ni^2+ and mibefradil, the conventionally known T-type calcium channel inhibitor. About 1 μM to 1 mM of Ni^2+ and about 0.1 to 10 μM of mibefradil were administered to the cell, respectively, according to the electrophysiological whole-cell patch-clamp method as described above, and then the inhibition (%) of the maximum of the inward current, caused through T-type calcium channel activated at or about −30 mV, was determined.

T2 sequence (O54898 whole entry): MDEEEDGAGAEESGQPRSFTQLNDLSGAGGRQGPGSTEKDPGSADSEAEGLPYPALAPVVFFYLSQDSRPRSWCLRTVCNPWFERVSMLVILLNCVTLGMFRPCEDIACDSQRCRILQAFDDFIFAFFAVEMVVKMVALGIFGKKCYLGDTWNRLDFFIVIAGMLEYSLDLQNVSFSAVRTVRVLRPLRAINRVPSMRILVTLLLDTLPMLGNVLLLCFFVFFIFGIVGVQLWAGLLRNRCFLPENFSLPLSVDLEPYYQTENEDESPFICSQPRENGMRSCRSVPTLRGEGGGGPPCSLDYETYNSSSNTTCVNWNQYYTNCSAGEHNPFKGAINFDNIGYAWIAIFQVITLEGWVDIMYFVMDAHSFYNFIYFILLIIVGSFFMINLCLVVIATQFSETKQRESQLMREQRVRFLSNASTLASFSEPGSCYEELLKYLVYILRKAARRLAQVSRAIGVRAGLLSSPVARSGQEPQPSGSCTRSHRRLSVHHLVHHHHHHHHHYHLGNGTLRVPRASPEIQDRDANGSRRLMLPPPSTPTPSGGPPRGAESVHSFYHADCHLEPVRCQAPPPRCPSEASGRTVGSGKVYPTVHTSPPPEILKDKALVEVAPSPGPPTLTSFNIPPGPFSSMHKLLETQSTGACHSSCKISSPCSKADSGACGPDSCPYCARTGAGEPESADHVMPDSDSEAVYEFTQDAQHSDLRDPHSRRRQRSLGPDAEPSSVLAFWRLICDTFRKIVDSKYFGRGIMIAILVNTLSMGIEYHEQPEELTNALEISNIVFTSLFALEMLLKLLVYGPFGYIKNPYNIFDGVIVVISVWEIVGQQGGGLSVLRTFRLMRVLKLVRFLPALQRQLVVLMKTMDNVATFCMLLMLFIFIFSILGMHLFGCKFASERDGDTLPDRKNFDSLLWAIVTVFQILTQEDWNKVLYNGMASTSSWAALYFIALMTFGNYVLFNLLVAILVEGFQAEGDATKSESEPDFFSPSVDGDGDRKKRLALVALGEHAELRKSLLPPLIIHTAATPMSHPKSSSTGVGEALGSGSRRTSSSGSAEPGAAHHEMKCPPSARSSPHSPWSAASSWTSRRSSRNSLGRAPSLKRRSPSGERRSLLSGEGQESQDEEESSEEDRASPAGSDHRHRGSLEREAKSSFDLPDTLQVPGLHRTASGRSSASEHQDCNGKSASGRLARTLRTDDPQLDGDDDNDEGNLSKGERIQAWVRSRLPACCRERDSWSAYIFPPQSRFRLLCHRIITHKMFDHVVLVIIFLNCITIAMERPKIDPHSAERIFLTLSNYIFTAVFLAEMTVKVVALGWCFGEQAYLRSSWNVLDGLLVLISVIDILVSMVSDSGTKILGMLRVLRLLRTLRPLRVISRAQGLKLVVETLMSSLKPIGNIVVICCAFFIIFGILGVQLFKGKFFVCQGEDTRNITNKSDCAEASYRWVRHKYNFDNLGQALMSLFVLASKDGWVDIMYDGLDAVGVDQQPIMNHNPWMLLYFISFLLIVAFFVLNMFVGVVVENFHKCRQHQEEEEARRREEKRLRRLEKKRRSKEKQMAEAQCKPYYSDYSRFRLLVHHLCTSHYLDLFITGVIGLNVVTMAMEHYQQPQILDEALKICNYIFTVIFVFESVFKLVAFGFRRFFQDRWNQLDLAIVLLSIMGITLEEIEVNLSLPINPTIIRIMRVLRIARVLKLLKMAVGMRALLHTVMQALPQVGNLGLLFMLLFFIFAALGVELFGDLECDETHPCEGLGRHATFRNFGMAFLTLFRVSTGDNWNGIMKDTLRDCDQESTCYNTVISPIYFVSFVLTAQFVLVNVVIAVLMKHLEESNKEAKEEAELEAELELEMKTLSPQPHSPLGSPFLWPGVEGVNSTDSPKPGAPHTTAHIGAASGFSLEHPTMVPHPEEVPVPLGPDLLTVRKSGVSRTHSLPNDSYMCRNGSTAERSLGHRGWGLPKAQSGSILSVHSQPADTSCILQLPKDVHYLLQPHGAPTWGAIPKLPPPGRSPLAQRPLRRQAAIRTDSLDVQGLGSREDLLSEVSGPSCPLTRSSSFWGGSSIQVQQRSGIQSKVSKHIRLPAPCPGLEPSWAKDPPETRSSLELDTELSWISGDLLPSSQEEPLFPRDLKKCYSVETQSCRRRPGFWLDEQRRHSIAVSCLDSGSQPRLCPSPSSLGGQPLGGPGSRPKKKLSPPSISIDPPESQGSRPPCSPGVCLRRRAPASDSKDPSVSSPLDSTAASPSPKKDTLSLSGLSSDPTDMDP

With `[Ba+2]` [Ba^2+], on Kir2.1, the “inhibition of Kir2.1 current (maximum current at each voltage)” value is listed as “inhibited in a concentration-dependent manner”.
As for `[Cs+]` [Cs^+], at Kir2.1, the “inhibition of Kir2.1 current (maximum current at each voltage)” value is given as “inhibited in a concentration-dependent manner”.
As to `[Cl-].[K+]` [KCl], the values for the calcium influx entry with Kir2.1+α1G HEK293 cell and in the experiment on α1G HEK293 cell were “calcium influx is induced” and “does not change calcium influx”, respectively.
As to `[Ni+2]` [Ni^2+], the “IC50 for inhibition of inward current through T-type calcium channel, Kir2.1+α1G HEK293 cell compared with α1G HEK293 cell” value in experiment [1] was “not significantly different”.
For `COCC(=O)O[C@]1(CCN(C)CCCc2nc3ccccc3[nH]2)CCc2cc(F)ccc2[C@@H]1C(C)C` [mibefradil], the “IC50 for inhibition of inward current through T-type calcium channel, Kir2.1+α1G HEK293 cell compared with α1G HEK293 cell” value in experiment [1] is “not significantly different”.
